Results from the supplement of paper PMC8967900.

Assays:
Assay in all cases: selective drug sensitivity score (sDSS, relative to normal bone marrow) (sDSS (score)); higher = more potent and effective on the cell line relative to normal bone marrow cells
Conditions in all cases: 72 h
697 = system: 697
KARPAS-45 = system: KARPAS-45
ALL-SIL = system: ALL-SIL
HAL-01 = system: HAL-01
P12-ICHIKAWA = system: P12-ICHIKAWA
COG-LL-355h = system: COG-LL-355h
KOPN-8 = system: KOPN-8
PF-382 = system: PF-382
MOLT-4 = system: MOLT-4
NALL-1 = system: NALL-1
P30-OHKUBO = system: P30-OHKUBO
MOLT-14 = system: MOLT-14
CCRF-HSB2 = system: CCRF-HSB2
COG-LL-402h = system: COG-LL-402h
MOLT-16 = system: MOLT-16
TMD5 = system: TMD5
JURKAT = system: JURKAT
KASUMI-9 = system: KASUMI-9
MN-60 = system: MN-60
NALM-16 = system: NALM-16
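Further: ALL cell lines in 384-well plates, five doses spanning 10,000-fold, each plate scaled between vehicle and 100 µmol/L benzalkonium chloride controls, sDSS an adapted area-under-curve metric.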

SMILES | selective drug sensitivity score 697 | selective drug sensitivity score (KARPAS-45) | selective drug sensitivity score (ALL-SIL) | selective drug sensitivity score (HAL-01) | selective drug sensitivity score (P12-ICHIKAWA) | selective drug sensitivity score (COG-LL-355h) | selective drug sensitivity score (KOPN-8) | selective drug sensitivity score (PF-382) | selective drug sensitivity score (MOLT-4) | selective drug sensitivity score (NALL-1) | selective drug sensitivity score (P30-OHKUBO) | selective drug sensitivity score (MOLT-14) | selective drug sensitivity score (CCRF-HSB2) | selective drug sensitivity score (COG-LL-402h) | selective drug sensitivity score (MOLT-16) | selective drug sensitivity score (TMD5) | selective drug sensitivity score (JURKAT) | selective drug sensitivity score (KASUMI-9) | selective drug sensitivity score (MN-60) | selective drug sensitivity score (NALM-16)
COc1ccc(-c2nc(N3CCOCC3)c3sc(CN(C)c4ncc(C(=O)NO)cn4)cc3n2)cn1 [Fimepinostat (CUDC-907)] (top concentration 10000 nM) | 9.88 | 9.58 | 8.98 | 0.98 | 5.18 | 7.28 | 10.9 | 2.58 | 5.28 | -3.42 | 8.68 | 9.18 | 1.68 | 10.9 | 8.68 | 5.18 | 0.98 | 10.7 | -1.22 | 1.78
CCOC(=O)CCNc1cc(N2CCc3ccccc3CC2)nc(-c2ccccn2)n1 [GSK-J4] (top concentration 100000 nM) | -8.08 | -7.28 | -4.58 | 7.72 | -7.68 | -4.78 | -8.88 | -7.58 | -7.98 | -9.18 | -8.18 | -3.98 | -7.18 | -7.88 | -5.48 | -9.38 | -5.98 | -7.88 | -6.58 | -8.38
Cc1cc(Nc2cc(CN3CCOCC3)c3nc(C)c(Cc4ccc(Cl)cc4F)n3n2)n[nH]1 [Gandotinib] (top concentration 10000 nM) | 5.28 | 9.48 | 9.08 | 4.68 | -0.62 | 2.18 | 8.28 | 1.88 | 4.88 | 4.88 | 6.28 | 3.18 | 5.98 | 5.28 | 5.68 | -0.82 | 3.98 | 9.88 | -3.22 | -1.52
NC(=O)NO [Hydroxyurea] (top concentration 1000000 nM) | 12.8 | 2.86 | 3.56 | 5.26 | 6.46 | 0.66 | 11.9 | 1.26 | 1.56 | -3.74 | 7.66 | 9.16 | 6.66 | 1.56 | 5.76 | -3.24 | 3.16 | 4.26 | -0.04 | 0.86
Cc1ccc(NC(=O)c2ccc(CN3CCN(C)CC3)cc2)cc1Nc1nccc(-c2cccnc2)n1 [Imatinib] (top concentration 10000 nM) | 1.06 | 1.96 | 24.9 | -0.44 | 0.16 | -0.44 | -0.04 | -0.24 | -0.34 | -0.44 | 0.06 | 0.46 | 7.96 | -0.44 | 0.46 | 8.96 | 0.66 | -0.44 | -0.44 | -0.44
CC(C)NC[C@@H](C(=O)N1CCN(c2ncnc3c2[C@H](C)C[C@H]3O)CC1)c1ccc(Cl)cc1 [Ipatasertib] (top concentration 10000 nM) | 2.9 | 5.2 | 2.9 | 1.8 | 2.9 | 5.8 | 4.3 | 4.2 | 7.1 | 1.8 | 1.9 | -1.8 | 0.3 | 7.3 | 10.9 | -1.8 | 7.1 | -0.2 | -1.8 | 1.7
CCC(C)n1ncn(-c2ccc(N3CCN(c4ccc(OCC5COC(Cn6cncn6)(c6ccc(Cl)cc6Cl)O5)cc4)CC3)cc2)c1=O (stereo not given) [Itraconazole] (top concentration 5000 nM) | 0.18 | 6.18 | 2.88 | 2.28 | -0.32 | -4.22 | 13.1 | 0.38 | -1.92 | -4.12 | -2.62 | -1.02 | 2.08 | -2.12 | 2.38 | -2.32 | 1.58 | -4.12 | -2.42 | -4.32
Cc1sc2c(c1C)C(c1ccc(Cl)cc1)=N[C@@H](CC(=O)OC(C)(C)C)c1nnc(C)n1-2 [JQ1] (top concentration 10000 nM) | 9.72 | 9.32 | -1.08 | 6.12 | 5.12 | 3.72 | 11.7 | 5.22 | -4.28 | 0.42 | 8.72 | -0.58 | 0.72 | 8.12 | 8.82 | -3.08 | -0.48 | 11.8 | 6.62 | 2.02
CCNC(=O)c1noc(-c2cc(C(C)C)c(O)cc2O)c1-c1ccc(CN2CCOCC2)cc1 [Luminespib] (top concentration 1000 nM) | -1.5 | -2.7 | -0.1 | -3.7 | -5 | 6.5 | 6.7 | -1.4 | -1.1 | -5.8 | -3.9 | -0.6 | 6.7 | 4.1 | 4.6 | -6.3 | -5.5 | -3 | -4.6 | -2.9
O=C(c1cccc(Cl)c1F)N1CCN(Cc2cccc(Nc3nccs3)n2)CC1 [MK-8745] (top concentration 10000 nM) | 8.9 | 23.8 | 11.8 | 7 | 11.3 | 2.7 | 13.2 | 8.5 | 11.8 | 12.4 | 9.1 | 7.8 | 14.1 | 14.1 | 12.2 | 9.4 | 9.8 | 13.2 | 1.6 | 12.4
Cc1ccc(NC(=O)c2ccc(CN3CCN(C)CC3)cc2)cc1Nc1nc(-c2cccnc2)cs1 [Masitinib] (top concentration 10000 nM) | 1.32 | 3.22 | 11.6 | 0.72 | 0.32 | -1.78 | -1.58 | 1.42 | -0.38 | -4.38 | 1.22 | 1.12 | 6.02 | -1.48 | 3.42 | 1.82 | 0.92 | 1.22 | -1.58 | -4.38
CCN(CC)CCCC(C)Nc1c2ccc(Cl)cc2nc2ccc(OC)cc12 (stereo not given) [Mepacrine] (top concentration 50000 nM) | -3.7 | -0.8 | -7.3 | -3.5 | -7.8 | -3.3 | 0.1 | -4.6 | -0.6 | -10 | -0.3 | -0.7 | -4.8 | 2.7 | -0.8 | -7.6 | -7.7 | -3.6 | -5.7 | -7.9
COc1ccc(-c2ccc3ncc4c(c3c2)n(-c2ccc(N3CCNCC3)c(C(F)(F)F)c2)c(=O)n4C)cn1 [NVP-BGT226] (top concentration 1000 nM) | 14.2 | 3.42 | 2.82 | 2.22 | 2.72 | 6.42 | 9.52 | 6.02 | 5.42 | -2.88 | 12.2 | 1.52 | 5.82 | 5.92 | 12.2 | -5.58 | 2.82 | 8.42 | 5.72 | -0.18
COc1nc(N)nc2c1ncn2[C@@H]1O[C@H](CO)[C@@H](O)[C@@H]1O [Nelarabine] (top concentration 10000 nM) | 1.58 | -9.92 | -2.82 | -5.82 | 4.68 | -6.22 | -7.82 | -1.62 | -0.72 | -10.2 | -1.82 | 8.78 | 1.88 | -2.32 | -7.22 | -10.2 | -0.12 | 1.98 | -10.2 | -9.52
Cc1cn(-c2cc(NC(=O)c3ccc(C)c(Nc4nccc(-c5cccnc5)n4)c3)cc(C(F)(F)F)c2)cn1 [Nilotinib] (top concentration 10000 nM) | 1.3 | 4.2 | 43.3 | 3.3 | 0.6 | 0.6 | 9.7 | 2.7 | 3.6 | 5.8 | 2.5 | 2.1 | 12.9 | 0 | 2.1 | 21 | 1.1 | 4.6 | 0 | 0
NC(=O)c1cccc2cn(-c3ccc(C4CCCNC4)cc3)nc12 (stereo not given) [Niraparib] (top concentration 10000 nM) | 12.9 | -0.62 | 2.88 | 3.18 | 0.68 | 4.68 | 16.1 | -2.12 | 3.58 | 4.08 | 5.98 | 12.8 | 5.78 | 8.48 | 4.78 | -1.72 | 0.38 | 5.78 | -3.02 | -2.82
COc1ccc(C[C@H](NC(=O)[C@H](C)NC(=O)CN2CCOCC2)C(=O)N[C@@H](Cc2ccccc2)C(=O)[C@@]2(C)CO2)cc1 [ONX-0914] (top concentration 10000 nM) | -5 | 1.8 | 3.8 | -9.3 | 7.3 | 8.7 | 1.5 | 6.5 | 1.9 | 9.8 | -1.8 | 0.5 | 9.9 | 2 | 2.5 | 0 | -4.4 | -4.1 | -2.9 | -2
CC(=O)c1cnc2ccc(-c3cc(Cl)c(O)c(Cl)c3)nc2c1N[C@H]1CC[C@H](CN(C)C)CC1 [OTS167] (top concentration 1000 nM) | 5.48 | 0.58 | 2.08 | 1.88 | -3.32 | 6.18 | 5.68 | -2.62 | -1.32 | -8.72 | 0.98 | 2.78 | 13.2 | 7.08 | 2.78 | -7.22 | -3.52 | 3.58 | -1.82 | -4.52
